Columns and labels:
Type in all cases: functional
ACHN = test: Cytotoxicity against Homo sapiens (human) ACHN cells assessed as growth inhibition at 10 uM after 48 hr by coulter counter analysis; conditions: read-out: GI
SNB-75 = test: Cytotoxicity against Homo sapiens (human) SNB75 cells assessed as growth inhibition at 10 uM after 48 hr by coulter counter analysis; conditions: SNB-75, 48 h, read-out: GI
SK-OV-3 = test: Cytotoxicity against Homo sapiens (human) SKOV3 cells assessed as growth inhibition at 10 uM after 48 hr by coulter counter analysis; conditions: SK-OV-3, 48 h, read-out: GI
TK-10 = test: Cytotoxicity against Homo sapiens (human) TK10 cells assessed as growth inhibition at 10 uM after 48 hr by coulter counter analysis; conditions: TK-10, 48 h, read-out: GI
UACC-257 = test: Cytotoxicity against Homo sapiens (human) UACC257 cells assessed as growth inhibition at 10 uM after 48 hr by coulter counter analysis; conditions: UACC-257, 48 h, read-out: GI
CAKI-1 = test: Cytotoxicity against Homo sapiens (human) Caki1 cells assessed as growth inhibition at 10 uM after 48 hr by coulter counter analysis; conditions: CAKI-1, 48 h, read-out: GI
COLO 205 = test: Cytotoxicity against Homo sapiens (human) COLO205 cells assessed as growth inhibition at 10 uM after 48 hr by coulter counter analysis; conditions: COLO 205, 48 h, read-out: GI
MCF7 = test: Cytotoxicity against Homo sapiens (human) MCF7 cells assessed as growth inhibition at 10 uM after 48 hr by coulter counter analysis; conditions: MCF7, 48 h, read-out: GI
SF-268 = test: Cytotoxicity against Homo sapiens (human) SF268 cells assessed as growth inhibition at 10 uM after 48 hr by coulter counter analysis; conditions: SF-268, 48 h, read-out: GI
SN12C = test: Cytotoxicity against Homo sapiens (human) SN12C cells assessed as growth inhibition at 10 uM after 48 hr by coulter counter analysis; conditions: read-out: GI
NCI-H522 = test: Cytotoxicity against Homo sapiens (human) NCI-H522 cells assessed as growth inhibition at 10 uM after 48 hr by coulter counter analysis; conditions: NCI-H522, 48 h, read-out: GI
MDA-MB-468 = test: Cytotoxicity against Homo sapiens (human) MDA-MB-468 cells assessed as growth inhibition at 10 uM after 48 hr by coulter counter analysis; conditions: MDA-MB-468, 48 h, read-out: GI
SR = test: Cytotoxicity against Homo sapiens (human) SR cells assessed as growth inhibition at 10 uM after 48 hr by coulter counter analysis; conditions: read-out: GI
SK-MEL-28 = test: Cytotoxicity against Homo sapiens (human) SK-MEL-28 cells assessed as growth inhibition at 10 uM after 48 hr by coulter counter analysis; conditions: SK-MEL-28, 48 h, read-out: GI
NCI-H460 = test: Cytotoxicity against Homo sapiens (human) NCI-H460 cells assessed as growth inhibition at 10 uM after 48 hr by coulter counter analysis; conditions: NCI-H460, 48 h, read-out: GI
EKVX = test: Cytotoxicity against Homo sapiens (human) EKVX cells assessed as growth inhibition at 10 uM after 48 hr by coulter counter analysis; conditions: read-out: GI
SF-295 = test: Cytotoxicity against Homo sapiens (human) SF295 cells assessed as growth inhibition at 10 uM after 48 hr by coulter counter analysis; conditions: SF-295, 48 h, read-out: GI
A498 = test: Cytotoxicity against Homo sapiens (human) A498 cells assessed as growth inhibition at 10 uM after 48 hr by coulter counter analysis; conditions: A498, 48 h, read-out: GI
786-0 = test: Cytotoxicity against Homo sapiens (human) 786-0 cells assessed as growth inhibition at 10 uM after 48 hr by coulter counter analysis; conditions: 786-0, 48 h, read-out: GI
HT-29 = test: Cytotoxicity against Homo sapiens (human) HT-29 cells assessed as growth inhibition at 10 uM after 48 hr by coulter counter analysis; conditions: HT-29, 48 h, read-out: GI
MOLT-4 = test: Cytotoxicity against Homo sapiens (human) MOLT4 cells assessed as growth inhibition at 10 uM after 48 hr by coulter counter analysis; conditions: MOLT-4, 48 h, read-out: GI
LOX IMVI = test: Cytotoxicity against Homo sapiens (human) LOXIMVI cells assessed as growth inhibition at 10 uM after 48 hr by coulter counter analysis; conditions: read-out: GI
[1] = Cytotoxicity against Homo sapiens (human) NCI-ADR-RES cells assessed as growth inhibition at 10 uM after 48 hr by coulter counter analysis; conditions: read-out: GI
UO-31 = test: Cytotoxicity against Homo sapiens (human) UO31 cells assessed as growth inhibition at 10 uM after 48 hr by coulter counter analysis; conditions: UO-31, 48 h, read-out: GI
CCRF-CEM = test: Cytotoxicity against Homo sapiens (human) CCRF-CEM cells assessed as growth inhibition at 10 uM after 48 hr by coulter counter analysis; conditions: read-out: GI
SW-620 = test: Cytotoxicity against Homo sapiens (human) SW620 cells assessed as growth inhibition at 10 uM after 48 hr by coulter counter analysis; conditions: SW-620, 48 h, read-out: GI
KM12 = test: Cytotoxicity against Homo sapiens (human) KM12 cells assessed as growth inhibition at 10 uM after 48 hr by coulter counter analysis; conditions: KM12, 48 h, read-out: GI
OVCAR-5 = test: Cytotoxicity against Homo sapiens (human) OVCAR5 cells assessed as growth inhibition at 10 uM after 48 hr by coulter counter analysis; conditions: OVCAR-5, 48 h, read-out: GI
MDA-MB-231 = test: Cytotoxicity against Homo sapiens (human) MDA-MB-231 cells assessed as growth inhibition at 10 uM after 48 hr by coulter counter analysis; conditions: MDA-MB-231, 48 h, read-out: GI
SK-MEL-5 = test: Cytotoxicity against Homo sapiens (human) SK-MEL-5 cells assessed as growth inhibition at 10 uM after 48 hr by coulter counter analysis; conditions: SK-MEL-5, 48 h, read-out: GI
K562 = test: Cytotoxicity against Homo sapiens (human) K562 cells assessed as growth inhibition at 10 uM after 48 hr by coulter counter analysis; conditions: K562, 48 h, read-out: GI
OVCAR-3 = test: Cytotoxicity against Homo sapiens (human) OVCAR3 cells assessed as growth inhibition at 10 uM after 48 hr by coulter counter analysis; conditions: OVCAR-3, 48 h, read-out: GI
HCT-116 = test: Cytotoxicity against Homo sapiens (human) HCT116 cells assessed as growth inhibition at 10 uM after 48 hr by coulter counter analysis; conditions: HCT-116, 48 h, read-out: GI
BT-549 = test: Cytotoxicity against Homo sapiens (human) BT549 cells assessed as growth inhibition at 10 uM after 48 hr by coulter counter analysis; conditions: BT-549, 48 h, read-out: GI

| SMILES | inhibition of growth at 10 µM (ACHN) | inhibition of growth at 10 µM (SNB-75) | inhibition of growth at 10 µM (SK-OV-3) | inhibition of growth at 10 µM (TK-10) | inhibition of growth at 10 µM (UACC-257) | inhibition of growth at 10 µM (CAKI-1) | inhibition of growth at 10 µM (COLO 205) | inhibition of growth at 10 µM (MCF7) | inhibition of growth at 10 µM (SF-268) | inhibition of growth at 10 µM (SN12C) | inhibition of growth at 10 µM (NCI-H522) | inhibition of growth at 10 µM (MDA-MB-468) | inhibition of growth at 10 µM (SR) | inhibition of growth at 10 µM (SK-MEL-28) | inhibition of growth at 10 µM (NCI-H460) | inhibition of growth at 10 µM (EKVX) | inhibition of growth at 10 µM (SF-295) | inhibition of growth at 10 µM (A498) | inhibition of growth at 10 µM (786-0) | inhibition of growth at 10 µM (HT-29) | further results |
| --- | --- | --- | --- | --- | --- | --- | --- | --- | --- | --- | --- | --- | --- | --- | --- | --- | --- | --- | --- | --- | --- |
| COc1ccc(-c2nc3c(c(=O)[nH]2)C(c2ccc(OC)c(OC)c2)C2=C(CCCC2)N3)cc1OC (stereo not given) | 28.8% | 22.6% | < 10% | < 10% | < 10% | 13.5% | 10.3% | 34.3% | 12.2% | 15% | 25.8% | 28.5% | 21.4% | < 10% | < 10% | < 10% | < 10% | < 10% | < 10% | < 10% | inhibition of growth at 10 µM (MOLT-4): < 10%; inhibition of growth at 10 µM (LOX IMVI): 21.1%; inhibition of growth at 10 µM [1]: < 10%; inhibition of growth at 10 µM (UO-31): 66.3%; inhibition of growth at 10 µM (CCRF-CEM): 11.7%; inhibition of growth at 10 µM (SW-620): < 10%; inhibition of growth at 10 µM (KM12): < 10%; inhibition of growth at 10 µM (OVCAR-5): < 10%; inhibition of growth at 10 µM (MDA-MB-231): < 10%; inhibition of growth at 10 µM (SK-MEL-5): 18.6%; inhibition of growth at 10 µM (K562): < 10%; inhibition of growth at 10 µM (OVCAR-3): < 10%; inhibition of growth at 10 µM (HCT-116): < 10% |
| Oc1ccc(-c2nc3c4c(ncn3n2)NC2=C(CCCC2)C4c2ccc(Cl)cc2)cc1 (stereo not given) | < 10% | 20.5% | < 10% | < 10% | < 10% | 24.6% | < 10% | < 10% | < 10% | < 10% | < 10% | < 10% | < 10% | < 10% | < 10% | < 10% | < 10% | 25.1% | < 10% | < 10% | inhibition of growth at 10 µM (BT-549): < 10%; inhibition of growth at 10 µM (MOLT-4): < 10%; inhibition of growth at 10 µM (LOX IMVI): 14.3%; inhibition of growth at 10 µM [1]: < 10%; inhibition of growth at 10 µM (UO-31): 29%; inhibition of growth at 10 µM (CCRF-CEM): 13.2%; inhibition of growth at 10 µM (SW-620): < 10%; inhibition of growth at 10 µM (KM12): < 10%; inhibition of growth at 10 µM (OVCAR-5): < 10%; inhibition of growth at 10 µM (MDA-MB-231): 20.5%; inhibition of growth at 10 µM (SK-MEL-5): < 10%; inhibition of growth at 10 µM (K562): < 10%; inhibition of growth at 10 µM (OVCAR-3): < 10%; inhibition of growth at 10 µM (HCT-116): < 10% |
| COc1ccc(C2C3=C(CCCC3)Nc3ncn4nc(-c5ccccc5)nc4c32)cc1OC (stereo not given) | 20% | < 10% | < 10% | < 10% | < 10% | 13.1% | < 10% | < 10% | < 10% | < 10% | 31.4% | 23.2% | < 10% | < 10% | < 10% | 11% | 29.6% | 53.6% | < 10% | < 10% | inhibition of growth at 10 µM (BT-549): < 10%; inhibition of growth at 10 µM (MOLT-4): 19.8%; inhibition of growth at 10 µM (LOX IMVI): < 10%; inhibition of growth at 10 µM [1]: < 10%; inhibition of growth at 10 µM (UO-31): 38.7%; inhibition of growth at 10 µM (CCRF-CEM): < 10%; inhibition of growth at 10 µM (SW-620): < 10%; inhibition of growth at 10 µM (KM12): < 10%; inhibition of growth at 10 µM (OVCAR-5): 11.7%; inhibition of growth at 10 µM (MDA-MB-231): 12.6%; inhibition of growth at 10 µM (SK-MEL-5): < 10%; inhibition of growth at 10 µM (K562): < 10%; inhibition of growth at 10 µM (OVCAR-3): < 10%; inhibition of growth at 10 µM (HCT-116): < 10% |
| COc1ccc(C2C3=C(CCCC3)Nc3ncn4nc(-c5ccc(O)cc5)nc4c32)cc1OC (stereo not given) | < 10% | 19.1% | < 10% | < 10% | < 10% | < 10% | < 10% | < 10% | < 10% | < 10% | 16.4% | 21.4% | < 10% | < 10% | < 10% | < 10% | < 10% | < 10% | < 10% | < 10% | inhibition of growth at 10 µM (BT-549): < 10%; inhibition of growth at 10 µM (MOLT-4): 12.3%; inhibition of growth at 10 µM (LOX IMVI): < 10%; inhibition of growth at 10 µM [1]: < 10%; inhibition of growth at 10 µM (UO-31): 29.3%; inhibition of growth at 10 µM (CCRF-CEM): < 10%; inhibition of growth at 10 µM (SW-620): < 10%; inhibition of growth at 10 µM (KM12): < 10%; inhibition of growth at 10 µM (OVCAR-5): < 10%; inhibition of growth at 10 µM (MDA-MB-231): 12.8%; inhibition of growth at 10 µM (SK-MEL-5): 23.2%; inhibition of growth at 10 µM (K562): < 10%; inhibition of growth at 10 µM (OVCAR-3): < 10%; inhibition of growth at 10 µM (HCT-116): < 10% |
